# Measurements reported in patent publication US11766414B2, “Compositions, delivery systems, and methods useful in tumor therapy” (Indi Molecular, Inc., priority 2020, dated 2023).
# Starred links: 1 amine or outer side, 2 acyl side, 3 side chain; linkers in the order of their positions; H or OH if unused. Positions of bridges follow the written chain, without caps; N, C: chain ends. Non-standard residues stand in square brackets, D forms with d. Residues, ends and D or L forms follow the SMILES beside them. Triazole bridges read from a SMILES are 1,4-linked. *: point of attachment. DOTA = O=C(O)CN1CCN(CC(=O)O)CCN(CC(=O)*)CCN(CC(=O)O)CC1; Pteroyl = Nc1nc2ncc(CNc3ccc(C(=O)*)cc3)nc2c(=O)[nH]1; Biotin = O=C1N[C@H]2[C@H](CS[C@H]2CCCCC(=O)*)N1; PEG10 = NCCOCCOCCOCCOCCOCCOCCOCCOCCOCCOCCC(=O)O; Butanoyl(4-(4-MePh)) = Cc1ccc(CCCC(=O)*)cc1; Lys(N3) = [N-]=[N+]=NCCCC[C@H](N)C(=O)O; γGlu = O=C(O)[C@H](CCC(=O)[*:2])N[*:1]; PEG7 = NCCOCCOCCOCCOCCOCCOCCOCCC(=O)O; Pra = C#CC[C@H](N)C(=O)O; X1 = NOCC(=O)*
# Key:
# [1] = molecular target: FOLR1 (Homo sapiens, UniProt P15328); assay: ELISA assay of FOLR1 binding; conditions: read-out: EC50 (ELISA, FOLR1)
# Description: FIG. 5 is a diagram of ELISA assay of FOLR1 binding of heterobiligands.
# [2] = molecular target: human recombinant NEP (Homo sapiens, UniProt P08473); assay: NEP enzymatic cleavage assay (MALDI, HPLC); assay type: biochemical; conditions: for NEP-mediated cleavage: MALDI
# Method: In order to test the susceptibility of GFK and MVK linkers to NEP-mediated cleavage, the peptide (Folate-hshta-Lys(MPBA)-Gly-Phe-Lys(DOTA) (SEQ ID NO:6)) was incubated with human recombinant NEP and analyzed the solution for the presence of cleaved adducts. MALDI was utilized to monitor the cleavage of a PCC heterobiligand that contains a NEP protease recognizable sequence (G-F-K). The PCC concentration was constant and the NEP concentration was titrated down from 10 nM to 1 nM, 0.1 nM, 0.01 nM, and no NEP. The NEP-mediated cleaved adduct was identified by mass. 10 μM PCC containing the GFK linker was combined with varying amounts of NEP. […] Below 0.1 nM no cleavage was observed. • Folate-hshta-Lys(MPBA)-Gly-Phe-Lys(DOTA) (SEQ ID NO:6) • Molecular weight 2231.42
# The NEP-mediated cleavage was also monitored by HPLC. In agreement with the MALDI spectra, the HPLC chromatograms show depletion of the parent brush-border heterobiligand (retention time 17.1 minutes), dose-dependent on the amount of NEP spiked into the sample (10 nM, 1 nM, 0.1 nM, 0.01 nM, and no NEP). An appearance of a new peak (retention time 16.5 minutes) in concert with the depletion of the starting material is presumed to be the cleaved folate-containing peptide.
# In order to test the specificity of NEP, a non-cleavable linker (PEG3) was also assayed.
# To reduce the radioactive dose to the kidney, Indi ^177Lu-7327 was constructed to incorporate a GFK linker that is susceptible to cleavage by enzymes found predominately in the kidney's brush border. These enzymes cleave off the radionuclide-chelator complex, which is quickly eliminated by the kidney for excretion in the urine. The zinc metalloprotease neprilysin (NEP) is expressed with high abundance in the kidney. […] To confirm NEP-mediated cleavage of the GFK linker in Indi 7327, the peptide was incubated with recombinant human NEP at 37° C. for 1 h and analyzed by matrix-assisted laser desorption/ionization mass spectrometry (MALDI-MS) for the evolution of cleaved adducts (FIG. 42). […] The expected cleaved adduct (mass: 1283.16 m/z) appears in the samples containing 10, 1.0, and 0.1 nM NEP. […] Below 0.1 nM NEP, no cleavage was observed. In addition to confirming the selectivity of NEP for the GFK linker, it is also important to note that the remaining portions of the Indi 7327 were impervious to the enzyme.
# human recombinant NEP, sequence (P08473 whole entry): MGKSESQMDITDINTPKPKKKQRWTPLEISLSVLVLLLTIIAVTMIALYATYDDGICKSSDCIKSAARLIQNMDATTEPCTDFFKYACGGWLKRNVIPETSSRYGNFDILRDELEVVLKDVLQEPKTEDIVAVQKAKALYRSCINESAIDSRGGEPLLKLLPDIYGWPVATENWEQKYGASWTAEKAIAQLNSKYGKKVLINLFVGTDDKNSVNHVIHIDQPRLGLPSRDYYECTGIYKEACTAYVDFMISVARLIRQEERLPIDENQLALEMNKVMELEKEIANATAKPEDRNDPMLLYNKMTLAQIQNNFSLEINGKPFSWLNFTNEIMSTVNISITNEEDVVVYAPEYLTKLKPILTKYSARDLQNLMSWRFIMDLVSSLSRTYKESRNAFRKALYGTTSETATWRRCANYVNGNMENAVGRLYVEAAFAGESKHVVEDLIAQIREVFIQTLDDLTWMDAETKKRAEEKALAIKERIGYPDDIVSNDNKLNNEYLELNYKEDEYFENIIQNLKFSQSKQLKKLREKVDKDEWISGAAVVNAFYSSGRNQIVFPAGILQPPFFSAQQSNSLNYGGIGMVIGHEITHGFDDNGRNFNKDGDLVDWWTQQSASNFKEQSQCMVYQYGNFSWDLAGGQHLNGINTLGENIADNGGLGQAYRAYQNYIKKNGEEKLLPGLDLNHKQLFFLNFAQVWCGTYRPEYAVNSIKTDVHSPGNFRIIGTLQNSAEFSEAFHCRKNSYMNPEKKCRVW
# FOLR1, sequence (P15328 25-234): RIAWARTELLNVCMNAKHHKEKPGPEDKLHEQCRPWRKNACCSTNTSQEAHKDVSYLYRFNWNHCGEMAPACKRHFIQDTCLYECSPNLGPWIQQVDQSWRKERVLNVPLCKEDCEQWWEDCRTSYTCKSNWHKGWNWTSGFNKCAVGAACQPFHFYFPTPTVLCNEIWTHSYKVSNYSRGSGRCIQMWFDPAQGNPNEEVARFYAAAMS
structure (smiles),measurement,setting,value
C[C@H](O)[C@H]1NC(=O)[C@@H](Cc2c[nH]cn2)NC(=O)[C@@H](CO)NC(=O)[C@@H](Cc2c[nH]cn2)NC(=O)[C@@H](NC(=O)CNC(=O)CC[C@H](NC(=O)c2ccc(NCc3cnc4nc(N)[nH]c(=O)c4n3)cc2)C(=O)O)Cc2cn(nn2)CCCC[C@@H](C(=O)NCCOCCOCCOCCOCCOCCOCCOCCOCCOCCOCCC(=O)NCCOCCOCCOCCOCCOCCOCCOCCOCCOCCOCCC(=O)N[C@@H](CCCCNC(=O)CCCC[C@@H]2SC[C@@H]3NC(=O)N[C@@H]32)C(N)=O)NC(=O)[C@@H](C)NC1=O [Folate-Gly-hshta] ({Pteroyl-γGlu}-G[Pra][dH][dS][dH][dT][dA][Lys(N3)][PEG10][PEG10]K(Biotin)-NH2; triazole 2-8),EC50,[1],0.9 nM
C[C@H](O)[C@H]1NC(=O)[C@@H](Cc2c[nH]cn2)NC(=O)[C@@H](CO)NC(=O)[C@@H](Cc2c[nH]cn2)NC(=O)[C@@H](NC(=O)CCOCCOCCOCCOCCOCCOCCOCCNC(=O)CC[C@H](NC(=O)c2ccc(NCc3cnc4nc(N)[nH]c(=O)c4n3)cc2)C(=O)O)Cc2cn(nn2)CCCC[C@@H](C(=O)NCCOCCOCCOCCOCCOCCOCCOCCOCCOCCOCCC(=O)NCCOCCOCCOCCOCCOCCOCCOCCOCCOCCOCCC(=O)N[C@@H](CCCCNC(=O)CCCC[C@@H]2SC[C@@H]3NC(=O)N[C@@H]32)C(N)=O)NC(=O)[C@@H](C)NC1=O [Folate-PEG7-hshta] ({Pteroyl-γGlu-PEG7}-[Pra][dH][dS][dH][dT][dA][Lys(N3)][PEG10][PEG10]K(Biotin)-NH2; triazole 1-7),EC50,[1],1 nM
C[C@H](O)[C@H]1NC(=O)[C@@H](Cc2c[nH]cn2)NC(=O)[C@@H](CO)NC(=O)[C@@H](Cc2c[nH]cn2)NC(=O)[C@@H](NC(=O)[C@H]2CCCN2C(=O)CC[C@H](NC(=O)c2ccc(NCc3cnc4nc(N)[nH]c(=O)c4n3)cc2)C(=O)O)Cc2cn(nn2)CCCC[C@@H](C(=O)NCCOCCOCCOCCOCCOCCOCCOCCOCCOCCOCCC(=O)NCCOCCOCCOCCOCCOCCOCCOCCOCCOCCOCCC(=O)N[C@@H](CCCCNC(=O)CCCC[C@@H]2SC[C@@H]3NC(=O)N[C@@H]32)C(N)=O)NC(=O)[C@@H](C)NC1=O [Folate-Pro-hshta] ({Pteroyl-γGlu}-[dP][Pra][dH][dS][dH][dT][dA][Lys(N3)][PEG10][PEG10]K(Biotin)-NH2; triazole 2-8),EC50,[1],0.9 nM
"Cc1ccc(CCCC(=O)NCCCC[C@H](NC(=O)[C@@H]2CCCCn3cc(nn3)C[C@H](NC(=O)CC[C@H](NC(=O)c3ccc(NCc4cnc5nc(N)[nH]c(=O)c5n4)cc3)C(=O)O)C(=O)N[C@H](Cc3cnc[nH]3)C(=O)N[C@H](CO)C(=O)N[C@H](Cc3cnc[nH]3)C(=O)N[C@H]([C@H](C)O)C(=O)N[C@H](C)C(=O)N2)C(=O)NCC(=O)N[C@@H](Cc2ccccc2)C(=O)N[C@@H](CCCCNC(=O)CON)C(=O)O)cc1 [compound 3304, Fol-hshta-Lys(4-MPBA)-Gly-Phe-Lys(AO)] ({Pteroyl-γGlu}-[Pra][dH][dS][dH][dT][dA][Lys(N3)]K(Butanoyl(4-(4-MePh)))GFK(X1)-OH; triazole 1-7)",in vitro Assay Data (NEP assay),"[2]; Table 7, AO-containing constructs",Cleavage of —G—F—K-
"C[C@H](O)[C@H]1NC(=O)[C@@H](Cc2c[nH]cn2)NC(=O)[C@@H](CO)NC(=O)[C@@H](Cc2c[nH]cn2)NC(=O)[C@@H](NC(=O)CC[C@H](NC(=O)c2ccc(NCc3cnc4nc(N)[nH]c(=O)c4n3)cc2)C(=O)O)Cc2cn(nn2)CCCC[C@@H](C(=O)NCC(=O)N[C@@H](Cc2ccccc2)C(=O)N[C@@H](CCCCNC(=O)CN2CCN(CC(=O)O)CCN(CC(=O)O)CCN(CC(=O)O)CC2)C(=O)O)NC(=O)[C@@H](C)NC1=O [compound 7327, folate-hshta-Gly-Phe-Lys(DOTA)] ({Pteroyl-γGlu}-[Pra][dH][dS][dH][dT][dA][Lys(N3)]GFK(DOTA)-OH; triazole 1-7)",site of neprilysin cleavage,[2],cleaved at the amide bond between Gly and Phe
same,NEP-mediated cleavage,[2]; 1 nM and 0.1 nM NEP,partial cleavage
same,NEP-mediated cleavage,[2]; 10 nM NEP,complete consumption of the peptide
same,in vitro Assay Data (NEP assay),[2]; Table 2,Cleavage of -G-F-K-
same,NEP-mediated cleavage,[2]; below 0.1 nM NEP,no cleavage
